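48-hour exposure; five concentrations; linearly interpolated endpoints. GI50 is the concentration that inhibits growth by half. TGI denotes the concentration required for complete inhibition of growth.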
What was measured:
Assay in all cases: NCI anticancer screen, dose series, 48 h
ACHN renal = tested on: ACHN renal
CCRF-CEM leukemia = tested on: CCRF-CEM leukemia
HCC-2998 colon = tested on: HCC-2998 colon
MDA-MB-231 breast = tested on: MDA-MB-231 breast
MOLT-4 leukemia = tested on: MOLT-4 leukemia
NCI-H226 lung = tested on: NCI-H226 lung
NCI-H23 lung = tested on: NCI-H23 lung
NCI-H460 lung = tested on: NCI-H460 lung
RPMI-8226 leukemia = tested on: RPMI-8226 leukemia
UACC-257 melanoma = tested on: UACC-257 melanoma

SMILES	GI50 (ACHN renal) [µM]	TGI (ACHN renal) [µM]	GI50 (CCRF-CEM leukemia) [µM]	GI50 (HCC-2998 colon) [µM]	TGI (HCC-2998 colon) [µM]	GI50 (MDA-MB-231 breast) [µM]	TGI (MDA-MB-231 breast) [µM]	GI50 (MOLT-4 leukemia) [µM]	TGI (MOLT-4 leukemia) [µM]	GI50 (NCI-H226 lung) [µM]	TGI (NCI-H226 lung) [µM]	GI50 (NCI-H23 lung) [µM]	TGI (NCI-H23 lung) [µM]	GI50 (NCI-H460 lung) [µM]	TGI (NCI-H460 lung) [µM]	GI50 (RPMI-8226 leukemia) [µM]	TGI (RPMI-8226 leukemia) [µM]	GI50 (UACC-257 melanoma) [µM]	TGI (UACC-257 melanoma) [µM]	TGI (CCRF-CEM leukemia) [µM]
O=C1C(=O)c2c(nc3ccc(C(F)(F)F)cn23)-c2ccccc21	0.185	0.381	0.39	0.499	0.988	0.215	0.74	0.237	0.602	0.72	1.77	0.175	0.477	0.466	1.08	0.169	0.53	0.193	0.363	–
COC1=CC(c2ccc[nH]2)=N/C1=C\c1[nH]c(C)c(C(=O)CCCCCCCCC(=O)O[C@H]2CC[C@H]3C4CCc5cc(O)ccc5C4CC[C@]23C)c1C (stereo partly drawn)	1.16	> 50	0.117	0.623	> 50	0.148	7.06	0.428	> 50	2.99	> 11.4	1.85	> 50	0.536	> 50	1.63	> 50	3.62	> 50	> 50
CC1(C)CC(C)(C)c2cc(NC(=S)Nc3ccc([N+](=O)[O-])cc3)ccc2S1	10.1	24.6	12.3	4.42	24.6	10.8	22.6	19.1	> 100	14.3	38.5	12.2	50.2	27.6	> 69.3	31	99.8	13.6	50.7	41.1
NCCO/C=C/C(N)C(=O)O (stereo not drawn)	–	> 100	–	–	> 100	–	> 100	–	–	–	> 100	–	> 100	–	> 100	–	> 100	–	> 100	> 100
CCOC(=O)Nc1ccc2nc(-c3cscn3)[nH]c2c1	8.45	> 100	7.01	18.5	> 100	7.81	> 100	5.31	> 100	30.7	> 100	8.47	> 100	4.05	> 100	4.6	> 100	5.21	> 100	> 100
COc1cc(N2C(=O)[C@H](Cl)C2c2ccc(SC)cc2)cc(OC)c1OC (stereo partly drawn)	0.061	71.3	0.305	0.235	> 100	0.238	> 100	0.284	> 100	0.37	> 100	0.121	> 100	0.362	11.6	0.348	10.5	32.2	> 100	> 100
N=C1CCCC1C(=S)SCCC(N)=O (stereo not drawn)	–	> 100	–	–	> 100	–	> 100	–	> 100	–	> 100	–	> 100	–	> 100	–	> 100	–	> 100	> 100
CC1CCC2C(C)C(=O)OC2C2(C)C(=O)C=CC12 (stereo not drawn)	–	> 10	–	–	> 10	–	> 10	–	> 10	–	> 10	–	> 10	–	> 10	–	> 10	–	> 10	> 10
CC(C)(C)C[C@H]1N[C@@H](C(=O)NC2CCC(O)CC2)[C@H](c2cccc(Cl)c2F)[C@@]12C(=O)Nc1cc(Cl)ccc12 (stereo partly drawn)	0.375	10.1	3.51	3.64	13.1	1.82	4.41	0.314	1.81	0.238	1.04	11.1	29.2	0.678	13.4	2.63	8.41	1.16	13.7	15.4
C=C1C(=O)O[C@@H]2/C=C(/C)[C@@H](OC(C)=O)C/C=C(\C)C(O)[C@@H](OC(=O)/C(C)=C\C)C12 (stereo partly drawn)	–	40.8	–	–	55.4	–	39.2	–	74.6	–	> 100	–	> 100	–	> 100	–	60.7	–	> 100	57.2
COc1cc2c(/C=C3\C(=O)Nc4ccccc43)c[nH]c2cc1C	1.64	4.51	0.0196	< 0.0179	0.167	0.289	2.69	0.142	2.52	0.035	19.7	0.0115	0.0719	0.0761	> 100	0.0393	16.2	< 0.01	26	0.0734
COC(=O)C(C(=O)C(=O)Nc1c(C)cccc1C(C)(C)C)c1nc2ccc(Cl)cc2[nH]c1=O (stereo not drawn)	–	> 100	–	–	> 100	–	> 100	–	> 100	–	> 100	–	> 100	–	> 100	–	> 100	–	> 100	> 100
O=C1/C(=C/c2ccccc2)Oc2cc(O)ccc21	–	> 100	–	–	> 100	–	> 100	–	> 100	–	> 100	–	> 100	–	> 100	–	> 100	–	> 100	> 100
O=c1[nH]c(C2CCCN2)nc2c1oc1ccc(Cl)cc12 (stereo not drawn)	> 100	> 100	68.1	> 100	> 100	> 100	> 100	> 100	> 100	18.6	> 100	> 100	> 100	> 100	> 100	> 100	> 100	54.8	> 100	> 100
N#C/C(=C\c1ccc2[nH]ccc2c1)C(=O)NCCCCNC(=O)/C(C#N)=C/c1ccc2[nH]ccc2c1	–	> 31.6	–	–	> 31.6	–	> 10	–	> 31.6	–	> 31.6	–	> 31.6	–	> 31.6	–	> 10	–	> 31.6	> 31.6
